In patent US20190106460A1, “BINDING INHIBITORS OF THE BETA. TRANSDUCIN REPEAT-CONTAINING PROTEIN” (priority 2011, published 2019):
Where two headings read alike, the source gives them in different places. Starred links: 1 amine or outer side, 2 acyl side, 3 side chain; linkers in the order of their positions; H or OH if unused. Non-standard residues stand in square brackets, D forms with d. Residues, ends and D or L forms follow the SMILES beside them. *: point of attachment. Phe(4-NO2) = N[C@@H](Cc1ccc([N+](=O)[O-])cc1)C(=O)O; 2Naphthylsulfonyl = O=S(=O)(c1ccc2ccccc2c1)*; Phe(3-Cl) = N[C@@H](Cc1cccc(Cl)c1)C(=O)O; Phe(3-F) = N[C@@H](Cc1cccc(F)c1)C(=O)O; Phe(2-F) = N[C@@H](Cc1ccccc1F)C(=O)O; NMeE = CN[C@@H](CCC(=O)O)C(=O)O; pS = N[C@@H](COP(=O)(O)O)C(=O)O; X1 = CCCCOc1ccc(S(=O)(=O)*)cc1; Suc = O=C(CCC(=O)[*:2])[*:1]; Tos = Cc1ccc(S(=O)(=O)*)cc1

Experiments:
FBW7/Skp1 = FBW7/Skp1 (Homo sapiens, UniProt Q969H0); test: Selectivity assay vs other E3s: Fbw7; type: biochemical; settings: for inhibition at 100 µM: value in brackets, read-out: % Inhibition Fbw7 @ (100 μM); for inhibition at 10 µM: read-out: % Inhibition Fbw7 @ 10 μM
Method in brief: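 FBW7/Skp1 E3 ubiquitination of cyclin E substrate in 50 mM HEPES pH 7.5, 75 mM NaCl, 1 mM DTT; preincubated 30 min at room temperature before Mg/ATP, then 60 min more. Products resolved by 10% SDS-PAGE and immunoblotted with anti-cyclin E.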

βTrCP [1] = target: T1, βTrCP (Homo sapiens, UniProt Q9Y297); test: Biotin pull down assay with biotinylated IκB peptide; type: binding; settings: for Biotin Pulldown Assay 10 μM: 10 μM compound; for Biotin Pulldown Assay 100 μM: 100 μM compound
T1 sequence (Q9Y297 1-605): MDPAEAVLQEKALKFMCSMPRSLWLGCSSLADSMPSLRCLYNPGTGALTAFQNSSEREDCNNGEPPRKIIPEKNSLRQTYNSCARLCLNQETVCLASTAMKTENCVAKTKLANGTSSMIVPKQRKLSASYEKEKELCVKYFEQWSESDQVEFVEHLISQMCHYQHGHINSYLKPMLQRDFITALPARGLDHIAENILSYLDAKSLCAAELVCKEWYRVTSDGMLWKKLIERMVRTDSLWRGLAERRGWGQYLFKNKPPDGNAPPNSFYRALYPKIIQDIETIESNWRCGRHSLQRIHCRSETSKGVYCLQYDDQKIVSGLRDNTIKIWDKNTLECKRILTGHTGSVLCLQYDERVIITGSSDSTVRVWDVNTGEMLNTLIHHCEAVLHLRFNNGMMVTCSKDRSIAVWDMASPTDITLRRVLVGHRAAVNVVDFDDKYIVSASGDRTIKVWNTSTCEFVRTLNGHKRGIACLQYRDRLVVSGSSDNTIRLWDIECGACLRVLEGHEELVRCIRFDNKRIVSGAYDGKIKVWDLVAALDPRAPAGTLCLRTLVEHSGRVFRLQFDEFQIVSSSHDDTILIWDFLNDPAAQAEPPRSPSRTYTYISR

Skp2 = Skp2 (Homo sapiens, UniProt Q13309); test: Selectivity assay vs other E3s: Skp2; type: biochemical; settings: for inhibition at 100 µM: value in brackets, read-out: % Inhibition Skp2 @ (100 μM); for inhibition at 10 µM: read-out: % Inhibition Skp2 @ 10 μM
Method in brief: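 Skp2 ubiquitination was measured in master mixes of 50 mM Herpes buffer, pH 7.5, with 75 mM NaCl and 1 mM DTT, lacking Mg or ATP. Test compounds were preincubated for 30 minutes at room temperature, Mg/ATP was added for a further 60 minutes, and reactions were boiled in SDS loading buffer, resolved on 10% SDS-PAGE, blotted to nitrocellulose and probed with HRP-Streptavidin.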

βTrCP [2] = target: βTrCP (Homo sapiens, UniProt Q9Y297); test: Fluorescence polarisation (FP) binding assay with fluorescein-tagged IκB peptide
Target sequence in this assay (P63208 whole entry partner, one chain of several): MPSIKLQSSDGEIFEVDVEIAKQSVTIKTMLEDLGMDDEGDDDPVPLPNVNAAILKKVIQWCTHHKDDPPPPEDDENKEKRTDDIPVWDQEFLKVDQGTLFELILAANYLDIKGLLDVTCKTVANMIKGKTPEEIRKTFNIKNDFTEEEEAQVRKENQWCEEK

β-TrCP1/Skp1 = β-TrCP1/Skp1 (Homo sapiens, UniProt Q9Y297); test: βTrCP ubiquitination assay (Ub assay); type: biochemical; settings: for Ub Assay 10 μM: 10 μM compound; for Ub Assay 100 μM: 100 μM compound
Method in brief: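 Compounds tested in duplicate at 10 and 100 μM in βTrCP(IκBα) and βTrCP(β-catenin) cascades with UBE1 E1, UbcH3 E2 and biotinylated ubiquitin; substrate phosphorylation done without compound, ubiquitination steps with compound. Product captured on anti-c-Myc plates and detected with SA-Ru TAG by MSD electrochemiluminescence.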

βTrCP/Skp1 = βTrCP/Skp1 (Homo sapiens, UniProt Q9Y297); test: Surface plasmon resonance (SPR), Biacore T200; type: binding; settings: apparent KD averaged over both surfaces
Description: Surface Plasmon Resonance (SPR)
Experiments were carried out using the Biacore T200 SPR detection system. This system exploits the phenomenon of surface plasmon resonance (SPR) to monitor interactions between molecules. The system involves the attachment of one interacting partner to a surface (an appropriate sensor chip) while the other interacting partner is passed over it in solution. The binding of molecules to the surface generates an SPR response (measured in response units (RU)) that is proportional to the mass and amount of the biomolecule (in this case βTrCP/Skp1) bound to the chip. The relative responses obtained are dependent on the concentration of the molecule binding. At RUmaximum, the attached protein's binding sites are saturated. Binding events can be followed in real time and a range of interaction characteristics can be determined including kinetics, specificity of interactions and the concentration of specific molecules in a sample.
As βTrCP was His tagged, an NTA sensor chip was used. This sensor chip has a dextran surface matrix with immobilized nitrilotriacetic acid (NTA) which provides a means of capturing polyHis-tagged proteins through Nickel chelation. It was hoped that addition of Ni^+ would orient the protein in a specific (and hopefully active) manner as it is covalently immobilised via amine coupling. Addition of EDC:NHS (N-ethyl-N′-(3-[…])-carbodiimide:N-hydroxysuccinimide) converts carboxyl groups on the dextran sensor chip surface to succinamide esters which readily form covalent bonds with primary amines. Each chip contains four flow cells (each a separate surface) which means that compounds/peptides can be passed over different forms of βTrCP and a reference surface simultaneously. If binding to βTrCP is occurring, responses should be the same (accounting for differences in density of surface etc) on each surface.
Two different βTrCP protein complexes were immobilised on to an NTA biacore sensor chip. One included the GSTSkp1 fusion (HisβTrCP/GSTSkp1) while the other was immobilised after GST Removal by Thrombin (HisβTrCP/Skp1). To ensure that the GST moiety is completely removed from Skp1, βTrCP/GSTSkp1 was incubated with thrombin ((10units/mg protein) for at least 16 hours at room temperature in 10mMHEPES 150mMNaCl pH7.4+2 mM CaCl2. Thrombin and GST were removed from βTrCP/Skp1 by buffer exchange through a 50 KDa MWCO vivaspin concentrator.
Protein Immobilisation Procedure for NTA Chip
Ni+ (500 μM NiCl) loaded on to surface at a flow rate of 5 μl/min for 60s. EDC/NHS (activates dextran carboxylates) loaded at a flow rate of 5 μl/min for 240s. Protein ([protein]=100 nM to 1 μM) loaded at a flow rate of 10 μl/min for 180s. Strip solution (350 μM EDTA/1M NaCl) added at flow rate of 10 μl/min for 30s (to chelate excess Ni+ and remove non-covalently bound protein e.g. protein oligomers). Quench solution (ethanolamine) at flow rate of 5 μl/min for 240s (to deactivate surface molecules on the chip that have not crosslinked protein). The immobilisation buffer used was 10 mM HEPES pH 7.4, 150 mM NaCl,
GST Capture Procedure (for Immobilisation Via GSTSkp1)
EDC:NHS was injected at 5 μl/min for 4 min to activate surface for amine coupling (this converts carboxyl groups on the surface of the chip to succinamide esters that react with primary amines)
Anti-GST (60 μg/ml). was loaded at 10 μl/min for 4 min resulting in an increase in response units of 6730 (Biacore manual states it should result in ˜7000)
Ethanolamine was injected at 5 μl/min for 5 min to deactivate remaining unreacted esters at surface (quenching).
Injection of a low concentration of purified GST (from kit) was injected for 3 mins at 5 μl/min before running a regeneration cycle with glycine pH2.0 that disrupts the antibody-GST interaction. […]

[3] = Table 11, with spread, read-out: FP IC50/μM
[4] = Tables 1, 3, 7, 8, 10 nM fluorescein-tagged IκB peptide, read-out: FP Assay IC50/μM

Sequence of β-TrCP1/Skp1 (P63208 2-163 partner limits assumed, one chain of several): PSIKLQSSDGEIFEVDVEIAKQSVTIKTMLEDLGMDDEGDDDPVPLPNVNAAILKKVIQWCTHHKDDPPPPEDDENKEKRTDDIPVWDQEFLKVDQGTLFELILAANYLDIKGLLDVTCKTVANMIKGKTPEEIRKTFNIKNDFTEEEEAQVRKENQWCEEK
Sequence of βTrCP/Skp1 (P63208 whole entry partner, one chain of several): as the sequence (P63208 whole entry partner, one chain of several) above
Sequence of FBW7/Skp1 (Q969H0 whole entry, species assumed): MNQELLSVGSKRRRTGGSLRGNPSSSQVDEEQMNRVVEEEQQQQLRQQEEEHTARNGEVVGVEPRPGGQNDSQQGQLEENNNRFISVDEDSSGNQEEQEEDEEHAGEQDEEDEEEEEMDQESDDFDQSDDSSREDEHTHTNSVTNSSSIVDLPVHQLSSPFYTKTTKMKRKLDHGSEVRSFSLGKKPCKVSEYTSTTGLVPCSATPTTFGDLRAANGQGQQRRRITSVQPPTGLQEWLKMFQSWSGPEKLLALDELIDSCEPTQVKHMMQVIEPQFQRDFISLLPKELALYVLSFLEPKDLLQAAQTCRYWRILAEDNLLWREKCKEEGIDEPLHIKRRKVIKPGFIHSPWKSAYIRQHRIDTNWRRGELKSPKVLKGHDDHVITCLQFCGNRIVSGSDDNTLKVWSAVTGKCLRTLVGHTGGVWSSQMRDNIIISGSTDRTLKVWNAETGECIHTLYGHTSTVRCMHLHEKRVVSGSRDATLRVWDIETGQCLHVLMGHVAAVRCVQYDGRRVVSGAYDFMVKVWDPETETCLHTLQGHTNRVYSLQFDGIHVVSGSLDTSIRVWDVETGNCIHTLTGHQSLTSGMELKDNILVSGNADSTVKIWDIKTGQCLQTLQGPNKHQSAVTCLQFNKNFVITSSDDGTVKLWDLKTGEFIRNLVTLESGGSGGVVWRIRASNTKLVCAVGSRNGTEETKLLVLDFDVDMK
Sequence of FBW7/Skp1 (P63208 whole entry partner, species assumed): as the sequence (P63208 whole entry partner, one chain of several) above
Sequence of FBW7/Skp1 (Q13616 whole entry partner, species assumed): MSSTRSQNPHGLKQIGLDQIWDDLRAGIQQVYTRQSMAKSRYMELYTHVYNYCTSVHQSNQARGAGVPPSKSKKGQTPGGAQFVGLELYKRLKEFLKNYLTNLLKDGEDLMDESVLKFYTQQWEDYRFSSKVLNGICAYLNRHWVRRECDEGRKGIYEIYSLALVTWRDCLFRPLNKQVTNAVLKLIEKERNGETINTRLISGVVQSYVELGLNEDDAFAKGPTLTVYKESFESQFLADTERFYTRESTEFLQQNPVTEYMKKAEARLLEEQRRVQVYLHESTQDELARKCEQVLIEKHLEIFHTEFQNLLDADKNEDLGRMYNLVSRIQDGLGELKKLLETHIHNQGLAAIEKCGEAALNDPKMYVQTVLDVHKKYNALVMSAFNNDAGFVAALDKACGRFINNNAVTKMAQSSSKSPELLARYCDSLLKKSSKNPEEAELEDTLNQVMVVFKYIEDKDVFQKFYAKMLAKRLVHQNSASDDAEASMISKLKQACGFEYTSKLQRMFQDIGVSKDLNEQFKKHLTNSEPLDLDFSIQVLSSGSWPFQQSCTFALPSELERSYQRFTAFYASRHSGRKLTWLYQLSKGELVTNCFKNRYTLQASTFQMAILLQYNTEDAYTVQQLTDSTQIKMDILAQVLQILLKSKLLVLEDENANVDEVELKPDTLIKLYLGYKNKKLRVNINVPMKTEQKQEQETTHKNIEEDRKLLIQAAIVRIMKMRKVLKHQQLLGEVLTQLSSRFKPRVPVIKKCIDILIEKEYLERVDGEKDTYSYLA
Sequence of FBW7/Skp1 (P62877 whole entry partner, species assumed): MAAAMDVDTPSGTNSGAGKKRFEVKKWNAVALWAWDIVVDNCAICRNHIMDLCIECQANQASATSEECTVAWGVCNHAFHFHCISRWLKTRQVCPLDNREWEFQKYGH
Sequence of Skp2 (Q13309 whole entry, species assumed): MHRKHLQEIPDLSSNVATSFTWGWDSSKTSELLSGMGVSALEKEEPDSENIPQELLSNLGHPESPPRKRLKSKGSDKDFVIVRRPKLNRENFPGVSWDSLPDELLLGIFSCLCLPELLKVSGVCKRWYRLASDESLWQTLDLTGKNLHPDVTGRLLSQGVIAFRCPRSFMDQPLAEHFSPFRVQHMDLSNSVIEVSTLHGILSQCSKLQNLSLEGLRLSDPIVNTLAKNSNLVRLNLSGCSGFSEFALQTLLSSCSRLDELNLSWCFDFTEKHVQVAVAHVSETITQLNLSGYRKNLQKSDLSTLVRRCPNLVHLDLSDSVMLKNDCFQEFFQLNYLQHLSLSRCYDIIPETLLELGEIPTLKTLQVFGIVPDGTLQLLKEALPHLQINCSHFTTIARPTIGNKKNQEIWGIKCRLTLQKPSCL
Sequence of Skp2 (P63208 whole entry partner, species assumed): as the sequence (P63208 whole entry partner, one chain of several) above
Sequence of Skp2 (Q13616 whole entry partner, species assumed): as the sequence (Q13616 whole entry partner, species assumed) above
Sequence of Skp2 (P62877 whole entry partner, species assumed): as the sequence (P62877 whole entry partner, species assumed) above

| SMILES | inhibition at 100 µM (FBW7/Skp1) [%] | inhibition at 10 µM (FBW7/Skp1) [%] | Biotin Pulldown Assay 10 μM (βTrCP [1]) | Biotin Pulldown Assay 100 μM (βTrCP [1]) | inhibition at 100 µM (Skp2) [%] | inhibition at 10 µM (Skp2) [%] | IC50 (βTrCP [2]; [3]) [µM] | Ub Assay 10 μM (β-TrCP1/Skp1) | Ub Assay 100 μM (β-TrCP1/Skp1) | Kd (βTrCP/Skp1) [µM] | IC50 (βTrCP [2]; [4]) [µM] |
| --- | --- | --- | --- | --- | --- | --- | --- | --- | --- | --- | --- |
| CC[C@H](C)[C@H](NC(=O)CNC(=O)[C@H](COP(=O)(O)O)NC(=O)[C@@H](N)CC(=O)O)C(=O)N[C@@H](Cc1ccccc1)C(=O)N[C@@H](CCC(=O)O)C(N)=O [UBP001, DpSGIFE-NH2] (H-D[pS]GIFE-NH2) | 0 | 0 | reduces/ | inhibits | 13 | 8 | 1.24 ± 0.145 | reduces/ | inhibits | 1.48 ± 0.286 |  |
| NC(=O)[C@H](CCC(=O)O)NC(=O)[C@H](Cc1ccc([N+](=O)[O-])cc1)NC(=O)[C@H](Cc1ccccc1F)NC(=O)CNC(=O)[C@H](CCC(=O)O)NC(=O)CCC(=O)O [UBP003, Suc-EGF(2F)F(4NO2)E-NH2] (Suc-EG[Phe(2-F)][Phe(4-NO2)]E-NH2) | 0 | 0 | no effect/ | reduces | 11 | 8 | 4.91 ± 0.702 | no effect/ | inhibits | 8 ± 0.26 |  |
| NC(=O)[C@H](CCC(=O)O)NC(=O)[C@H](Cc1ccc([N+](=O)[O-])cc1)NC(=O)[C@H](Cc1cccc(F)c1)NC(=O)CNC(=O)[C@H](CCC(=O)O)NC(=O)CCC(=O)O [UBP004, Suc-EGF(3F)F(4NO2)E-NH2] (Suc-EG[Phe(3-F)][Phe(4-NO2)]E-NH2) | 2 | 0 | reduces/ | inhibits | 3 | 0 | 0.522 ± 0.049 | inhibits/ | inhibits | 4.53 ± 0.681 |  |
| CCCCOc1ccc(S(=O)(=O)N[C@H](CC(=O)O)C(=O)N[C@@H](CCC(=O)O)C(=O)NCC(=O)N[C@@H](Cc2cccc(F)c2)C(=O)N[C@@H](Cc2c[nH]c3ccccc23)C(=O)N[C@@H](CCC(=O)O)C(N)=O)cc1 [UBP030, 4-(BuO)-PhSO2-dEGF(3F)WE-NH2] (X1-[dD]EG[Phe(3-F)]WE-NH2) | 12 | 7 | reduces/ | inhibits | 13 | 0 | 0.056 ± 0.008 | reduces/ | inhibits |  | 0.056 |
| NC(=O)[C@H](CCC(=O)O)NC(=O)[C@H](Cc1c[nH]c2ccccc12)NC(=O)[C@H](Cc1cccc(F)c1)NC(=O)CNC(=O)[C@H](CCC(=O)O)NC(=O)[C@@H](CC(=O)O)NS(=O)(=O)c1ccc2ccccc2c1 [UBP031, 2-NaphthylSO2-dEGF(3F)WE-NH2] (2Naphthylsulfonyl-[dD]EG[Phe(3-F)]WE-NH2) | 11 | 10 | reduces/ | inhibits | 17 | 0 | 0.044 ± 0.005 | reduces/ | inhibits |  |  |
| Cc1ccc(S(=O)(=O)N[C@H](CC(=O)O)C(=O)N[C@@H](CCC(=O)O)C(=O)NCC(=O)N[C@@H](Cc2cccc(Cl)c2)C(=O)N[C@@H](Cc2c[nH]c3ccccc23)C(=O)N(C)[C@@H](CCC(=O)O)C(N)=O)cc1 [UBP033, Ts-dEGF(3Cl)WE(Me)-NH2] (Tos-[dD]EG[Phe(3-Cl)]W[NMeE]-NH2) | 11 | 7 |  | inhibits | 10 | 0 |  |  | inhibits |  | 0.017 |
| Cc1ccc(S(=O)(=O)N[C@H](CC(=O)O)C(=O)N[C@@H](CCC(=O)O)C(=O)NCC(=O)N[C@@H](Cc2cccc(Cl)c2)C(=O)N[C@@H](Cc2c[nH]c3ccccc23)C(=O)N[C@@H](CCC(=O)O)C(N)=O)cc1 [UBP034, Ts-dEGF(3Cl)WE-NH2] (Tos-[dD]EG[Phe(3-Cl)]WE-NH2) | 6 | 8 | s. reduces/ | inhibits | 0 | 0 | 0.01 ± 0.002 | inhibits/ | inhibits |  |  |
